# Test results as given in US20060211606A1, “Peptides” (priority 2005, published 2006).
# Where no end group is shown, it is not given here. [ ]: non-standard residue; d: D form.
# System: Human Skeletal Muscle Myoblasts (HSMM)
# Test: HSMM proliferation, BrdU incorporation
# Type: cell-based
# Details: 48 hours
# Method: (A) Peptide A5: HSMM cells at 500 cells/well. Cultivation was carried out for 24 hours in 10% FCS, followed by two washes in serum free medium, stimulation for 48 hours and then treatment with BrdU for 5 hours. Concentrations of 0.1, 1, 10, 100 and 500 ng/ml of peptide A5 were tested, along with 0.1, 1, 10 and 100 ng/ml IGF-I. BrdU incorporation was measured to assess the level of cell proliferation achieved. Controls containing medium only, no cells (BLK), background staining (BG) and 10% FBS were also provided. Values on the Y-axis are for fluorescence (absorbence at 370 nm; mean plus standard error across 4 wells). The first five columns relate to peptide A5 at concentrations of 0.1, 1, 10, 100 and 500 ng/ml. The next column relates to the control containing medium only. The next three relate to IGF-I (See Example 1.5) alone at concentrations of 100, 10 and 0.1 ng/ml. The next three relate to controls containing 10% FBS, background staining and no cells respectively. * means P<0.05 compared to medium only control.
# (§1) (B) Peptide AS: HSMM cells at 500 cells/well. […] Concentrations of 0.1, 1, 10, 100 and 500 ng/ml of peptide AS in combination with 2 ng/ml IGF-I were tested, along with 0.1, 1, 10 and 100 ng/ml IGF-I. BrdU incorporation was measured to assess the level of cell proliferation achieved. […] Values on the Y-axis are for fluorescence (absorbence at 370 nm; mean plus standard error across 4 wells). […]
# as §1, with “(A)” for “(B)”, “AS” for “AS in combination with 2 ng/ml IGF-I”
# (B) Peptide A5: HSMM cells at 500 cells/well. […] Concentrations of 0.1, 1, 10, 100 and 500 ng/ml of peptide AS in combination with 2 ng/ml IGF-I were tested, along with 0.1, 1, 10 and 100 ng/ml IGF-I. BrdU incorporation was measured to assess the level of cell proliferation achieved. […]
substance,measurement,setting,value
"A5: SEQ ID NO: 15 with D-Arginine at positions 14 and 15, amidated at the C-terminus, not pegylated (YQPPSTNKNTKSQ[dR][dR]KGSTFEEHK-NH2; N-terminus assumed; SMILES C[C@@H](O)[C@H](NC(=O)[C@H](CO)NC(=O)CNC(=O)[C@H](CCCCN)NC(=O)[C@@H](CCCNC(=N)N)NC(=O)[C@@H](CCCNC(=N)N)NC(=O)[C@H](CCC(N)=O)NC(=O)[C@H](CO)NC(=O)[C@H](CCCCN)NC(=O)[C@@H](NC(=O)[C@H](CC(N)=O)NC(=O)[C@H](CCCCN)NC(=O)[C@H](CC(N)=O)NC(=O)[C@@H](NC(=O)[C@H](CO)NC(=O)[C@@H]1CCCN1C(=O)[C@@H]1CCCN1C(=O)[C@H](CCC(N)=O)NC(=O)[C@@H](N)Cc1ccc(O)cc1)[C@@H](C)O)[C@@H](C)O)C(=O)N[C@@H](Cc1ccccc1)C(=O)N[C@@H](CCC(=O)O)C(=O)N[C@@H](CCC(=O)O)C(=O)N[C@@H](Cc1c[nH]cn1)C(=O)N[C@@H](CCCCN)C(N)=O) [Peptide A5]","proliferation of HSMM (BrdU incorporation), with 2 ng/ml IGF-I in the medium","A5 in combination with 2 ng/ml IGF-I, P<0.001",significant effect on the proliferation of HSMM at a higher confidence level
same,"proliferation of HSMM (BrdU incorporation), used in isolation","A5 significant (P<0.1) at doses of 10 ng/ml and below, IGF-I alone 0.1, 10 and 100 ng/ml",significant effect
